Reference: patent US8178530B2, “Imidazolopyrazine compounds useful for the treatment of degenerative and inflammatory diseases” (Janssen Pharmaceutica NV, priority 2006, dated 2012)

Columns and labels:
MMP1 expression by SFs = test: 'MMP assay': MMP1 expression by 'complex trigger' activated synovial fibroblasts (MMP1 ELISA); type: cell-based, human; conditions: Homo sapiens, Fibroblast, RASFs, 48 hrs
MAPKAPK5 = molecular target: T1, MAPKAPK5 (Homo sapiens, UniProt Q8IW41); test: MAPKAP-K5 assay (FlashPlate, 33P-ATP); type: biochemical; conditions: 0.6 μM ATP, 30 minutes at room temperature
T1 construct: 1 mU MAPKAP-K5
T1 sequence (Q8IW41 1-473): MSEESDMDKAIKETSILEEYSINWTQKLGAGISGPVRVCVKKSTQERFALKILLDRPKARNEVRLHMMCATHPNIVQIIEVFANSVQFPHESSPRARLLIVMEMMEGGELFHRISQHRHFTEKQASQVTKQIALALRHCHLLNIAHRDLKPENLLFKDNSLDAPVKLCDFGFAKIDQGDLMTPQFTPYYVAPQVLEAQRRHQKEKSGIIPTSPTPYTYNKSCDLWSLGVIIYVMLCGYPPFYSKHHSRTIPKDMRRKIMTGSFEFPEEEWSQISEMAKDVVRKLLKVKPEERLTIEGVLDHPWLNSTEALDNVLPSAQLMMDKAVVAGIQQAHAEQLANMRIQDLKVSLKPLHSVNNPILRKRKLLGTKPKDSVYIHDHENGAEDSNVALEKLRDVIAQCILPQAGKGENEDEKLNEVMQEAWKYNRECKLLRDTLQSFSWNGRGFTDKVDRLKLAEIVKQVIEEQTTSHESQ
Experimental: 3 μM MAPKAP-K5 peptide substrate

Compound | EC50 (MMP1 expression by SFs) [nM] | IC50 (MAPKAPK5) [nM]
O=C(O)c1cnc(Nc2ccc(N3CCOCC3)cc2)c2nccn12 [Compound 63] | > 1000 | > 1000
O=C1NCc2cc(-c3cnc(Nc4cnc(N5CCOCC5)nc4)c4nccn34)ccc21 [Compound 215] | > 1000 | 101 to 500
Cc1nc(-c2cnc(Nc3ccc(N4CCOCC4)cc3)c3nccn23)n[nH]1 [Compound 100] | > 1000 | > 1000
CC(C)N1CCN(c2ccc(Nc3ncc(-c4cn[nH]c4)n4ccnc34)cn2)CC1 [Compound 201, [6-(4-Isopropylpiperazin-1-yl)pyridin-3-yl]-[5-(1H-pyrazol-4-yl)-imidazo[1,2-a]pyrazin-8-yl]amine] | > 1000 | 501 to 1000
CN1CCN(c2ccc(Nc3ncc(-c4cn[nH]c4C(F)(F)F)n4ccnc34)cc2)CC1 [Compound 157, [4-(4-Methyl-piperazin-1-yl)-phenyl]-[5-(3-trifluoromethyl-1H-pyrazol-4-yl)-imidazo[1,2-a]pyrazin-8-yl]-amine] | > 1000 | > 1000
CCN(CC)CCNC(=O)c1ccc(Nc2ncc(-c3ccc(C(N)=O)cc3)n3ccnc23)cc1 [Compound 46] | > 1000 | > 1000
O=C(NCCO)c1ccc(Nc2ncc(-c3cn[nH]c3)n3ccnc23)cc1 [Compound 61] | > 1000 | 501 to 1000
O=C(O)c1ccc(-c2cnc(Nc3ccc(N4CCOCC4)cc3)c3nccn23)cc1F [Compound 39] | > 1000 | > 1000
CCN(CC)CCNC(=O)c1ccc(Nc2ncc(-c3cc[nH]c(=O)c3)n3ccnc23)cc1 [Compound 99] | > 1000 | 101 to 500
CC(C)(C)OC(=O)c1ccc(Nc2ncc(-c3cn[nH]c3)n3ccnc23)cc1 [Compound 22] | > 1000 | > 1000
c1cn2c(-c3cn[nH]c3)cnc(Nc3ccc4[nH]ccc4c3)c2n1 [Compound 27] | > 1000 | 501 to 1000
CCN(CC)CCNC(=O)c1ccc(Nc2ncc(-c3ccc(CC(=O)O)cc3)n3ccnc23)cc1 [Compound 76] | > 1000 | > 1000
CCN(CC)CCNC(=O)c1ccc(Nc2ncc(-c3ccncc3)n3ccnc23)cc1 [Compound 86] | > 1000 | > 1000
